# Assay: gradient 5% acetonitrile 3 min, to 50% in 2 min, to 85% in 15 min, held 3 min, 100 µL/min
# Conditions: column: Zorbax Extend-C18 2.1 x 50 mm; eluents: water / acetonitrile, 0.1% formic acid
# How it was run: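 Pure standards were analyzed in mixtures of ~100 molecules using HPLC coupled to a quadrupole time-of-flight mass spectrometer, in both positive and negative ionization mode. Separation used a Zorbax Extend-C18 column (2.1 × 50 mm, 1.8 μm) at 100 μL/min, with water and acetonitrile each containing 0.1% formic acid. Dead and dwell volumes were 40 μL and 900 μL, and data were collected over 3 months. Retention time was read from computationally picked adduct peaks, each inspected manually.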
row,RP-LC retention time,Compound
1,775 s,COc1ccc(CCC(=O)N2CCCC2c2cc(C)on2)cc1 (stereo not given)
2,890 s,Cc1cc(NC(=O)C(C)Oc2ccc(-c3cnc4ccccc4n3)cc2)no1 (stereo not given)
3,851 s,CCc1noc2nc(C)n(CC(=O)NCCc3ccc(C)cc3)c(=O)c12
4,613 s,COc1ccc(CCNC(=O)Cn2nc3n(c2=O)CCCC3)cc1OC
5,643 s,Cc1ccnc(NC(=O)NCCCSc2nccc(C)n2)n1
6,787 s,CC(C)n1c(-c2cccc(C(=O)NCc3cccs3)c2)nc2cccnc21
7,991 s,CCn1c(=O)c(N2CCN(C(=O)Nc3ccccc3Br)CC2)nc2cccnc21
8,684 s,CCNC(=O)C1CCCN(S(=O)(=O)c2ccc(OC)c(OC)c2)C1 (stereo not given)
9,1110 s,COc1ccc(OC)c(NC(=O)N2c3ccccc3CC2c2nc(C3CC3)no2)c1 (stereo not given)
10,708 s,CCCn1nc2n(c1=O)CCN(Cc1cn[nH]c1-c1ccc(OCC)c(Cl)c1)C2
11,919 s,Cc1ccc(-c2nc(C)cc(OCC(=O)NCc3ccc4c(c3)OCO4)n2)cc1
12,1070 s,O=C(Cn1c(=O)sc2ccccc21)Nc1nc(-c2ccc(Br)cc2)cs1
13,649 s,CC(C(=O)NCCN(C)C)C1CCN(C(=O)c2cc3cc(Cl)ccc3[nH]2)CC1 (stereo not given)
14,686 s,CCOc1cc(-c2ccc(Cl)cc2)nc2ccc(NC(C)=O)cc12
15,653 s,CCC(C)C1Nc2ccc(C(=O)NCCCOC)cc2NC1=O (stereo not given)
16,685 s,O=C(Nc1ccc(C(F)(F)F)cc1)NC1CCN(c2cc(N3CCOCC3)cnn2)C1 (stereo not given)
17,641 s,CCn1nccc1C(=O)Nc1nnc(-c2ccsc2)o1
18,1020 s,O=C(c1cccs1)N1CCCC(c2ccnc(-c3ccccc3)n2)C1 (stereo not given)
19,1040 s,COc1nc2ccccc2nc1N1CCCC(C(=O)NCc2ccccc2)C1 (stereo not given)
20,608 s,Cc1cc(Cl)ccc1S(=O)(=O)N1CCN(C2CCN(Cc3ccccn3)C2=O)CC1 (stereo not given)
21,913 s,O=C(c1ccccc1Br)N1CCN(c2cc(-c3ccc(Cl)cc3)[nH]n2)CC1

row,RP-LC retention time,Compound
1,1000 s,Cc1nn(-c2ccccc2)c(C)c1S(=O)(=O)N1CCC(C(=O)Nc2cc(F)ccc2F)CC1
2,943 s,CCCN(CCC)C(=O)C1CCC(=O)N1S(=O)(=O)c1ccc(C)cc1 (stereo not given)
3,1260 s,Cc1cc(Cl)ccc1NS(=O)(=O)c1cc(-c2cc(C(F)(F)F)on2)sc1C
4,1090 s,CCOC(=O)c1cc(S(=O)(=O)N2CCN(c3cccc(C)c3)C(C)C2)c(C)n1C (stereo not given)
5,697 s,Cc1ccc(-c2cc3c(=O)n(Cc4noc(CN5CCCC5)n4)ccn3n2)cc1C
6,909 s,CCOc1ccccc1NC(=O)Cn1c(=O)n(-c2ccccc2)c(=O)c2c1cc(C)n2C
7,1130 s,Cc1ccc(-c2cn3c(CC(=O)N4CCN(c5cc(Cl)ccc5C)CC4)csc3n2)cc1C
8,655 s,Cc1nn(C(C)C(=O)NCCCN(C)c2ccccc2)c(=O)c2c(C)n(-c3ccccc3)nc12 (stereo not given)
9,610 s,COCc1cn(C2CN(C(=O)c3ccc(OC)nc3)C2)nn1
10,633 s,CCCC(=O)Nc1ccc2nc(N3CCN(c4ccc(OC)cc4)CC3)cc(C(=O)O)c2c1
11,860 s,Cc1ccc(S(=O)(=O)N2c3ccccc3NC3=C(C(=O)CCC3)C2c2ccco2)cc1C (stereo not given)
12,835 s,CCN(CC)c1ccc(C(=O)O)cc1NC(=O)c1cccs1
13,614 s,CC(=O)N1CCN(c2nc3c(s2)CC(C(=O)N2CCCCCC2)CC3)CC1 (stereo not given)
14,974 s,Cc1ccc(CN2N=C(C(=O)N3CCCCC3)S(=O)(=O)c3ccccc32)cc1
15,817 s,CCn1c(CCC(=O)NCc2ccccc2OC)nc2ccc(C)cc2c1=O
16,1110 s,Cc1cc(C)n(C(C[N+](=O)[O-])c2ccc(Cl)cc2Cl)n1 (stereo not given)
17,930 s,CCn1nc(C)n2cc(S(=O)(=O)NCc3ccc(F)c(Cl)c3)cc2c1=O
18,636 s,CCN(CC)CCNC(=O)Cn1nc(-n2cccc2)c2c(C)cc(C)nc21
19,679 s,CNC(=O)N1CC(c2nc(-c3ccccc3)no2)C2(CCOCC2)C1 (stereo not given)
20,651 s,CS(=O)(=O)N1CCCN(C(=O)c2ccccc2F)CC1

# Second part, the compound before the results:
row,Compound,RP-LC retention time
1,CCOC(=O)CCC(=O)NCC1CN(c2ccc(F)cc2)C(=O)O1 (stereo not given),666 s
2,CCn1cc(-c2ccc(OC)cc2)cc1C(=O)NCCN1CCN(C)CC1,623 s
3,COc1ccc(-n2c(=O)n(C)c(=O)c3cc(C(=O)Nc4ccccc4C)cnc32)cc1,849 s
4,Cn1ncc(N2CCCC(CC(=O)N3CCSCC3)C2)cc1=O (stereo not given),666 s
5,COc1cc(C(=O)NC2CCN(c3cc(-c4cccs4)[nH]n3)C2)cc(OC)c1OC (stereo not given),698 s
6,CN(C)S(=O)(=O)c1ccc(-c2nnc(C(=O)NCc3ccc(F)c(Cl)c3)o2)cc1,898 s
7,Cn1ncc2c(N3CCSCC3)nc(C(=O)NCCc3ccncc3)nc21,559 s
8,COc1ccc(NC(=O)c2cc(C)n3nc(-c4ccco4)cc3n2)cc1F,1060 s
9,CC(=O)c1cccc(NC(=O)Cn2cc3c(n2)CCCCC3)c1,821 s
10,Cc1ccc(CNC(=O)C2CCN(c3nc4cccnc4s3)CC2)o1,704 s
11,COc1ccc(CNC(=O)C2(C)CCN(C(=O)Nc3ccc(F)cc3)CC2)cc1,761 s
12,COC(=O)c1ccccc1NC(=O)Cn1c(=O)n(-c2ccccc2)c(=O)c2c1cc(C)n2C,911 s
13,COc1ccc2[nH]cc(CCNC(=O)c3ccccc3F)c2c1,789 s
14,CCS(=O)(=O)N1CCCc2cc(C(=O)Nc3ccc(Br)cc3)ccc21,1030 s
15,CCOC(=O)C1CCN(c2ncc(S(=O)(=O)c3ccc(Cl)cc3)c(N)n2)CC1,1030 s
16,Cc1cccn2cc(-c3cccc(S(=O)(=O)N(C)C)c3)nc12,620 s
17,CNC(=O)c1ccc(-c2nc3cc(NS(=O)(=O)c4cccc(Cl)c4)ccc3n2C)cc1,653 s
18,COc1cc(NS(=O)(=O)c2c[nH]c3ncccc23)cc(OC)c1,707 s
19,CCNC(=O)c1cc2cc(C)ccc2[nH]1,791 s
20,Cc1cc(C2CCCN2C(=O)c2cc(F)c(F)cc2Cl)no1 (stereo not given),832 s
21,CCS(=O)(=O)N1CCCCCC1c1ccccc1Cl (stereo not given),1090 s
22,CCC(NC(=O)c1cn2ccc(C)cc2n1)c1cccs1 (stereo not given),685 s
23,Cc1noc(C)c1Cc1c(C(=O)NCC23CCC=C2N(C)C(=O)CC3)noc1C (stereo not given),768 s
24,Cc1ccc(Sc2nccnc2N2CCCC(C(=O)Nc3ccc(C)c(C)c3)C2)cc1 (stereo not given),1290 s
25,Cn1cc(C(=O)NCCCc2ccccc2)c(S(=O)(=O)N2CCSCC2)n1,944 s

row,Compound,RP-LC retention time
1,O=S(=O)(Cc1ccccc1Cl)NCCN1CCN(c2ccc(F)cc2)CC1,591 s
2,Cc1ccc(-c2ccc(=O)n(CCc3nc(-c4ccccc4)no3)n2)cc1C,1050 s
3,CC(C)CC(=O)Nc1ccc(-n2cnc(C(=O)N3CCN(C4CCCCC4)CC3)c2)nc1,620 s
4,CCNc1nc(C)cc(N2CCN(S(=O)(=O)c3cccc(C)c3)CC2)n1,708 s
5,CCOC(=O)c1c(C)[nH]c(C(=O)N2CCCC(C(=O)NCCCc3ccccc3)C2)c1C (stereo not given),867 s
6,COCCNC(=O)C1CCN(c2nccnc2Sc2ccccc2)CC1,764 s
7,CCn1ccc(-c2nc(CCS(=O)(=O)c3ccccc3)no2)n1,768 s
8,CC(C)N1CCN(c2cc(-c3nc(-c4cccc(F)c4)no3)c3ccccc3n2)CC1,890 s
9,COCCNC(=O)C1c2ccccc2C(=O)N(C)C1c1cccs1 (stereo not given),679 s
10,CCn1nccc1C(=O)N1CCC2(CC1)N=C(c1ccc(C)cc1)NO2,734 s
11,Cc1cc(C(=O)NCc2cccnc2)c2cc(Br)ccc2n1,588 s
12,CCc1nc(OCC(=O)Nc2ccc(Br)cc2F)c2ccccc2n1,910 s
13,CC(C)NC(=O)NC1CCN(c2nc3ccccc3n(C)c2=O)CC1,562 s
14,COc1ccc2cccc(NC(=O)c3ccco3)c2n1,1010 s
15,COc1ccc(-c2nc(Nc3ccc(C)cc3)sc2C)cc1,1060 s
16,O=C(Nc1ccccc1)C1CCCN(S(=O)(=O)c2cc(-c3noc(C4CCCC4)n3)cs2)C1 (stereo not given),1220 s
17,CCC(=O)N(C1CCOCC1)C1CCN(S(=O)(=O)c2cccnc2)CC1,807 s
18,CCNC(=O)C1CCCN(c2nc3ncn(CC(=O)Nc4ccccc4Cl)c(=O)c3s2)C1 (stereo not given),664 s
19,O=C(NCc1ccc(F)cc1)Nc1ccc2c(c1)CCN2S(=O)(=O)c1ccccc1,904 s
20,CC1CCN(CCNC(=O)c2nnc(-c3ccc(S(=O)(=O)N4CCOCC4)cc3)o2)CC1,629 s
21,C=CCn1nc2c(C)c(C)nc(-c3cccnc3)n2c1=O,631 s
22,CC1CCN(S(=O)(=O)c2cc(C(=O)N3CCN(c4ccc(Cl)cc4)CC3)n(C)c2)CC1,1100 s
23,CCCCn1c(=O)c2ccccc2n(Cc2nc(-c3ccc(OC)c(OC)c3)no2)c1=O,1060 s
24,CC1Oc2ccc(-c3csc(NC(=O)c4ccco4)n3)cc2NC1=O (stereo not given),783 s

# From the METLIN SMRT retention time set (Domingo-Almenara et al. 2019)
